Legend:
Format in all cases: in vivo
[1] = test system: redroot pigweed (Amaranthus retroflexus, AMARE); experiment: Pre-emerge test, greenhouse herbicide activity screening; conditions: rating scale 0-100, 14 days after application
Method in brief: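 Sandy loam pots; pre-emerge: sown 1 d pre-spray, surface-watered after, then bottom-watered. Post-emerge: sown 8–21 d before, 2–3 leaf stage, + 0.25% v/v NIS, bottom-watered. Acetone, 187 l/ha track spray, 15–1000 g ai/ha. 0–100 injury score, day 14.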

[2] = test system: upland rice (Oryza sp., var. Tebonnet, RICE); experiment: Post-emerge test, crop safety; conditions: rating scale 0-100 (0 no damage, 100 complete death), 14 days after application
Method in brief: (§1)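 Fourteen days after spraying, crop and weed injury was graded visually from 0, no effect, to 100, every plant dead. Test substances were dissolved in acetone and applied at 15–1000 g ai/ha with a flat-fan nozzle. Application was either pre-emergence, one day after sowing, or post-emergence at the 2–3 leaf stage.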

[3] = test system: field corn (Zea mays L., var. Dekalb 535, CORN); experiment: Post-emerge test, crop safety; conditions: rating scale 0-100 (0 no damage, 100 complete death), 14 days after application
Method in brief: as §1

[4] = test system: upland rice (Oryza sp., var. Tebonnet, RICE); experiment: Pre-emerge test, crop safety; conditions: rating scale 0-100, 14 days after application
Method in brief: (§2)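 Compounds in acetone were track-sprayed at 15-1000 g ai/ha (187 l/ha) on sandy loam pots: pre-emerge one day after seeding, post-emerge at 2-3 leaf stage with 0.25% v/v non-ionic surfactant. Phytotoxicity was rated 14 days later on a 0 (no damage) to 100 (complete death) scale.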

[5] = test system: field corn (Zea mays L., var. Dekalb 535, CORN); experiment: Pre-emerge test, crop safety; conditions: rating scale 0-100, 14 days after application
Method in brief: as §2

[6] = test system: velvetleaf (Abutilon theophrasti, ABUTH); experiment: Pre-emerge test, greenhouse herbicide activity screening; conditions: rating scale 0-100, 14 days after application
Method in brief: as §1

[7] = test system: ivyleaf morningglory (Ipomoea hederacea, IPOHE); experiment: as above; conditions: rating scale 0-100, 14 days after application
Method in brief: as §1

[8] = test system: green foxtail (Setaria viridis, SETVI); experiment: as above; conditions: rating scale 0-100, 14 days after application
Method in brief: as §1

[9] = test system: sicklepod (Cassia obtusifolia, CASOB); experiment: as above; conditions: rating scale 0-100, 14 days after application
Method in brief: as §1

[10] = test system: lambsquarters (Chenopodium album, CHEAL); experiment: as above; conditions: rating scale 0-100, 14 days after application
Method in brief: as §1

[11] = test system: johnsongrass (Sorghum halepense, SORHA); experiment: as above; conditions: rating scale 0-100, 14 days after application
Method in brief: as §1

[12] = test system: common ragweed (Ambrosia artemisizfolia L., AMBEL); experiment: as above; conditions: rating scale 0-100, 14 days after application
Method in brief: as §1

[13] = test system: large crabgrass (Digitaria sanguinalis, DIGSA); experiment: as above; conditions: rating scale 0-100, 14 days after application
Method in brief: as §1

[14] = test system: barnyardgrass (Echinochloa crus-galli, ECHCG); experiment: as above; conditions: rating scale 0-100, 14 days after application
Method in brief: as §1

[15] = test system: velvetleaf (Abutilon theophrasti, ABUTH); experiment: Post-emerge test, greenhouse herbicide activity screening; conditions: rating scale 0-100 (0 no damage, 100 complete death), 14 days after application
Method in brief: (§3)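 Compounds in acetone were track-sprayed at 15–1000 g ai/ha: pre-emergence onto soil sown the previous day, then top-watered to incorporate and later bottom-watered; post-emergence onto 2–3 leaf plants with 0.25% v/v surfactant, bottom-watered only. Ratings on a 0–100 phytotoxicity scale were taken at day 14.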

[16] = test system: redroot pigweed (Amaranthus retroflexus, AMARE); experiment: as above; conditions: rating scale 0-100 (0 no damage, 100 complete death), 14 days after application
Method in brief: as §3

[17] = test system: ivyleaf morningglory (Ipomoea hederacea, IPOHE); experiment: as above; conditions: rating scale 0-100 (0 no damage, 100 complete death), 14 days after application
Method in brief: as §3

[18] = test system: green foxtail (Setaria viridis, SETVI); experiment: as above; conditions: rating scale 0-100 (0 no damage, 100 complete death), 14 days after application
Method in brief: as §3

[19] = test system: sicklepod (Cassia obtusifolia, CASOB); experiment: as above; conditions: rating scale 0-100 (0 no damage, 100 complete death), 14 days after application
Method in brief: as §3

[20] = test system: lambsquarters (Chenopodium album, CHEAL); experiment: as above; conditions: rating scale 0-100 (0 no damage, 100 complete death), 14 days after application
Method in brief: as §3

[21] = test system: johnsongrass (Sorghum halepense, SORHA); experiment: as above; conditions: rating scale 0-100 (0 no damage, 100 complete death), 14 days after application
Method in brief: as §3

[22] = test system: common ragweed (Ambrosia artemisizfolia L., AMBEL); experiment: as above; conditions: rating scale 0-100 (0 no damage, 100 complete death), 14 days after application
Method in brief: as §3

[23] = test system: large crabgrass (Digitaria sanguinalis, DIGSA); experiment: as above; conditions: rating scale 0-100 (0 no damage, 100 complete death), 14 days after application
Method in brief: as §3

[24] = test system: barnyardgrass (Echinochloa crus-galli, ECHCG); experiment: as above; conditions: rating scale 0-100 (0 no damage, 100 complete death), 14 days after application
Method in brief: as §3

CCCCOC(=O)C(C)(Cl)Cc1c(OC)c(Cl)cc(F)c1-n1c(=O)cc(C(F)(F)F)n(C)c1=O (stereo not drawn) [14-36]
Pre-emerge herbicidal activity, phytotoxicity rating AMARE ([1]; 63 g ai/ha): 75
Pre-emerge herbicidal activity, phytotoxicity rating AMARE ([1]; 250 g ai/ha): 100
Post-emerge phytotoxicity rating RICE (crop damage) ([2]; Rate 63 g ai/ha): 35
Post-emerge phytotoxicity rating RICE (crop damage) ([2]; Rate 250 g ai/ha): 60
Post-emerge phytotoxicity rating CORN (crop damage) ([3]; Rate 63 g ai/ha): 95
Post-emerge phytotoxicity rating CORN (crop damage) ([3]; Rate 250 g ai/ha): 95
Pre-emerge phytotoxicity rating, crop damage RICE ([4]; 63 g ai/ha): 10
Pre-emerge phytotoxicity rating, crop damage RICE ([4]; 250 g ai/ha): 70
Pre-emerge phytotoxicity rating, crop damage CORN ([5]; 63 g ai/ha): 0
Pre-emerge phytotoxicity rating, crop damage CORN ([5]; 250 g ai/ha): 10
Pre-emerge herbicidal activity, phytotoxicity rating ABUTH ([6]; 63 g ai/ha): 100
Pre-emerge herbicidal activity, phytotoxicity rating ABUTH ([6]; 250 g ai/ha): 100
Pre-emerge herbicidal activity, phytotoxicity rating IPOHE ([7]; 63 g ai/ha): 0
Pre-emerge herbicidal activity, phytotoxicity rating IPOHE ([7]; 250 g ai/ha): 0
Pre-emerge herbicidal activity, phytotoxicity rating SETVI ([8]; 63 g ai/ha): 10
Pre-emerge herbicidal activity, phytotoxicity rating SETVI ([8]; 250 g ai/ha): 95
Pre-emerge herbicidal activity, phytotoxicity rating CASOB ([9]; 63 g ai/ha): 0
Pre-emerge herbicidal activity, phytotoxicity rating CASOB ([9]; 250 g ai/ha): 0
Pre-emerge herbicidal activity, phytotoxicity rating CHEAL ([10]; 63 g ai/ha): 75
Pre-emerge herbicidal activity, phytotoxicity rating CHEAL ([10]; 250 g ai/ha): 100
Pre-emerge herbicidal activity, phytotoxicity rating SORHA ([11]; 63 g ai/ha): 0
Pre-emerge herbicidal activity, phytotoxicity rating SORHA ([11]; 250 g ai/ha): 30
Pre-emerge herbicidal activity, phytotoxicity rating AMBEL ([12]; 63 g ai/ha): 10
Pre-emerge herbicidal activity, phytotoxicity rating AMBEL ([12]; 250 g ai/ha): 80
Pre-emerge herbicidal activity, phytotoxicity rating DIGSA ([13]; 63 g ai/ha): 30
Pre-emerge herbicidal activity, phytotoxicity rating DIGSA ([13]; 250 g ai/ha): 95
Pre-emerge herbicidal activity, phytotoxicity rating ECHCG ([14]; 63 g ai/ha): 0
Pre-emerge herbicidal activity, phytotoxicity rating ECHCG ([14]; 250 g ai/ha): 90
Post-emerge Herbicidal Activity, phytotoxicity rating ABUTH ([15]; Rate 63 g ai/ha): 95
Post-emerge Herbicidal Activity, phytotoxicity rating ABUTH ([15]; Rate 250 g ai/ha): 100
Post-emerge Herbicidal Activity, phytotoxicity rating AMARE ([16]; Rate 63 g ai/ha): 100
Post-emerge Herbicidal Activity, phytotoxicity rating AMARE ([16]; Rate 250 g ai/ha): 100
Post-emerge Herbicidal Activity, phytotoxicity rating IPOHE ([17]; Rate 63 g ai/ha): 30
Post-emerge Herbicidal Activity, phytotoxicity rating IPOHE ([17]; Rate 250 g ai/ha): 70
Post-emerge Herbicidal Activity, phytotoxicity rating SETVI ([18]; Rate 63 g ai/ha): 85
Post-emerge Herbicidal Activity, phytotoxicity rating SETVI ([18]; Rate 250 g ai/ha): 99
Post-emerge Herbicidal Activity, phytotoxicity rating CASOB ([19]; Rate 63 g ai/ha): 20
Post-emerge Herbicidal Activity, phytotoxicity rating CASOB ([19]; Rate 250 g ai/ha): 40
Post-emerge Herbicidal Activity, phytotoxicity rating CHEAL ([20]; Rate 63 g ai/ha): 99
Post-emerge Herbicidal Activity, phytotoxicity rating CHEAL ([20]; Rate 250 g ai/ha): 100
Post-emerge Herbicidal Activity, phytotoxicity rating SORHA ([21]; Rate 63 g ai/ha): 20
Post-emerge Herbicidal Activity, phytotoxicity rating SORHA ([21]; Rate 250 g ai/ha): 40
Post-emerge Herbicidal Activity, phytotoxicity rating AMBEL ([22]; Rate 63 g ai/ha): 100
Post-emerge Herbicidal Activity, phytotoxicity rating AMBEL ([22]; Rate 250 g ai/ha): 95
Post-emerge Herbicidal Activity, phytotoxicity rating DIGSA ([23]; Rate 63 g ai/ha): 40
Post-emerge Herbicidal Activity, phytotoxicity rating DIGSA ([23]; Rate 250 g ai/ha): 65
Post-emerge Herbicidal Activity, phytotoxicity rating ECHCG ([24]; Rate 63 g ai/ha): 99
Post-emerge Herbicidal Activity, phytotoxicity rating ECHCG ([24]; Rate 250 g ai/ha): 100
